# Data as given in patent publication US12077503B2, “Substituted cyclic amides and their use as herbicides” (FMC CORPORATION, priority 2015, dated 2024).
# Like-named read-outs stand apart in the source and are kept apart here.
# Legend:
# Experiment in all cases: Test A postemergence
# Type in all cases: in vivo
# [1] = system: Galium (catchweed bedstraw, Galium aparine); conditions: Galium, post-emergence, 240 h; for pest or weed control at 125 g/ha: 125 g ai/ha, postemergence; for pest or weed control at 31 g/ha: Postemergence, 31 g ai/ha, visual injury after approx. 10 d, 0 to 100 scale, 0 no effect, 100 complete control
# Summary of the method: (§1)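 Visual injury, scored on a 0–100 scale relative to untreated controls, was recorded about 10 d after application. Treatments were a preemergence soil spray over planted seeds or a postemergence spray on plants at the one- to two-leaf stage, 2 to 10 cm tall, all in loam soil–sand blend in the greenhouse.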
# [2] = system: barnyardgrass (Echinochloa crus-galli); conditions: Echinochloa crus-galli, post-emergence, 240 h; for pest or weed control at 125 g/ha: 125 g ai/ha, postemergence; for pest or weed control at 31 g/ha: Postemergence, 31 g ai/ha, visual injury after approx. 10 d, 0 to 100 scale, 0 no effect, 100 complete control
# Summary of the method: as §1
# corn (Zea mays) = conditions: Zea mays, post-emergence, 240 h; for Corn plant response rating (crop injury, 0 = no effect, 100 = complete kill) at 125 g/ha / plant injury at 125 g/ha: 125 g ai/ha, postemergence; for Corn plant response rating (crop injury, 0 = no effect, 100 = complete kill) at 125 g/ha: visual injury after approximately 10 d, 0 to 100 scale (0 no effect, 100 complete control); for Corn plant response rating (crop injury, 0 = no effect, 100 = complete kill) at 31 g/ha: Postemergence, 31 g ai/ha, visual injury after approx. 10 d, 0 to 100 scale, 100 complete control; for plant injury at 125 g/ha: visual injury rating after approximately 10 d, read-out: Corn plant response rating (0 to 100 scale, 0 no effect, 100 complete control)
# Summary of the method: as §1
# [3] = system: pigweed (Amaranthus retroflexus); conditions: Amaranthus retroflexus, post-emergence, 240 h; for pest or weed control at 125 g/ha: 125 g ai/ha, postemergence; for pest or weed control at 31 g/ha: Postemergence, 31 g ai/ha, visual injury after approx. 10 d, 0 to 100 scale, 0 no effect, 100 complete control
# Summary of the method: as §1
# [4] = system: ragweed (common ragweed, Ambrosia elatior); conditions: Ambrosia artemisiifolia, post-emergence, 240 h; for pest or weed control at 125 g/ha: 125 g ai/ha, postemergence; for pest or weed control at 31 g/ha: Postemergence, 31 g ai/ha, visual injury after approx. 10 d, 0 to 100 scale, 0 no effect, 100 complete control
# Summary of the method: as §1
# [5] = system: wheat (Triticum aestivum); conditions: Triticum aestivum, post-emergence, 240 h; for plant injury at 125 g/ha: 125 g ai/ha, postemergence; for plant injury at 31 g/ha: Postemergence, 31 g ai/ha, visual injury after approx. 10 d, 0 to 100 scale, 0 no effect, 100 complete control
# Summary of the method: as §1
# [6] = visual injury after approximately 10 d, 0 to 100 scale (0 no effect, 100 complete control), read-out: Plant response rating, Galium
# [7] = visual injury after approximately 10 d, 0 to 100 scale (0 no effect, 100 complete control), read-out: Plant response rating, Barnyardgrass
# [8] = visual injury after approximately 10 d, 0 to 100 scale (0 no effect, 100 complete control), read-out: Plant response rating, Pigweed
# [9] = visual injury after approximately 10 d, 0 to 100 scale (0 no effect, 100 complete control), read-out: Plant response rating, Ragweed
# [10] = visual injury after approximately 10 d, 0 to 100 scale (0 no effect, 100 complete control), read-out: Plant response rating, Wheat
# [11] = read-out: Plant response rating, Galium
# [12] = read-out: Plant response rating, Barnyardgrass
# [13] = read-out: Plant response rating, Pigweed
# [14] = read-out: Plant response rating, Ragweed
# [15] = read-out: Plant response rating, Wheat
# [16] = visual injury rating after approximately 10 d, read-out: Galium plant response rating (0 to 100 scale, 0 no effect, 100 complete control)
# [17] = visual injury rating after approximately 10 d, read-out: Barnyardgrass plant response rating (0 to 100 scale, 0 no effect, 100 complete control)
# [18] = visual injury rating after approximately 10 d, read-out: Pigweed plant response rating (0 to 100 scale, 0 no effect, 100 complete control)
# [19] = visual injury rating after approximately 10 d, read-out: Ragweed plant response rating (0 to 100 scale, 0 no effect, 100 complete control)
# [20] = visual injury rating after approximately 10 d, read-out: Wheat plant response rating (0 to 100 scale, 0 no effect, 100 complete control)
SMILES,"pest or weed control at 125 g/ha [1, 6] [%]","pest or weed control at 125 g/ha [2, 7] [%]","Corn plant response rating (crop injury, 0 = no effect, 100 = complete kill) at 125 g/ha (corn (Zea mays)) [%]","pest or weed control at 125 g/ha [3, 8] [%]","pest or weed control at 125 g/ha [4, 9] [%]","plant injury at 125 g/ha [5, 10] [%]","pest or weed control at 31 g/ha [1, 11] [%]","pest or weed control at 31 g/ha [2, 12] [%]","Corn plant response rating (crop injury, 0 = no effect, 100 = complete kill) at 31 g/ha (corn (Zea mays)) [%]","pest or weed control at 31 g/ha [3, 13] [%]","pest or weed control at 31 g/ha [4, 14] [%]","plant injury at 31 g/ha [5, 15] [%]","pest or weed control at 125 g/ha [1, 16] [%]","pest or weed control at 125 g/ha [2, 17] [%]",plant injury at 125 g/ha (corn (Zea mays)) [%],"pest or weed control at 125 g/ha [3, 18] [%]","pest or weed control at 125 g/ha [4, 19] [%]","plant injury at 125 g/ha [5, 20] [%]"
O=C1NC[C@H](c2csc3ccccc23)[C@H]1C(=O)Nc1ccccc1F [Compound 750],0,70,0,0,0,0,–,–,–,–,–,–,–,–,–,–,–,–
O=C1NC[C@H](c2csc3ccccc23)[C@H]1C(=O)Nc1cccc(F)c1F [Compound 751],40,60,0,0,0,0,–,–,–,–,–,–,–,–,–,–,–,–
CN1C[C@H](c2cc(F)cc(F)c2)[C@@H](C(=O)NC2CCc3ccccc32)C1=O (stereo partly drawn) [Compound 755],0,0,0,0,0,0,–,–,–,–,–,–,–,–,–,–,–,–
Cc1ccc(NC(=O)[C@H]2C(=O)N(C)C[C@@H]2c2cc(F)cc(F)c2)c(F)c1 [Compound 760],0,80,0,0,0,0,–,–,–,–,–,–,–,–,–,–,–,–
Cc1ccc([C@H]2CNC(=S)[C@@H]2C(=O)Nc2cccc(F)c2F)cc1C [Compound 765],0,70,0,0,0,0,–,–,–,–,–,–,–,–,–,–,–,–
COc1cc([C@H]2CN(C)C(=O)[C@@H]2C(=O)Nc2ccccc2SC)ccc1C(F)(F)F [Compound 769],50,50,0,0,0,0,–,–,–,–,–,–,–,–,–,–,–,–
Cc1ccc(NC(=O)[C@H]2C(=O)N(C)C[C@@H]2c2cc(F)cc(F)c2)c(F)c1F [Compound 771],50,90,40,0,20,30,–,–,–,–,–,–,–,–,–,–,–,–
CN1C[C@H](c2nccs2)[C@@H](C(=O)Nc2ccccc2F)C1=O [Compound 773],0,0,0,0,0,0,–,–,–,–,–,–,–,–,–,–,–,–
CN1C[C@H](c2nccs2)[C@@H](C(=O)Nc2cccc(F)c2F)C1=O [Compound 774],0,0,0,0,0,0,–,–,–,–,–,–,–,–,–,–,–,–
O=C1NC[C@H](c2ccc3c(c2)CCO3)[C@H]1C(=O)Nc1ccccc1F [Compound 786],10,80,0,0,0,0,–,–,–,–,–,–,–,–,–,–,–,–
Cc1cc([C@H]2CN(C)C(=O)[C@@H]2C(=O)Nc2cccc(F)c2F)cc(C)c1C [Compound 796],40,90,90,20,0,–,0,80,70,0,0,30,–,–,–,–,–,–
Cc1cc([C@H]2CN(C)C(=O)[C@@H]2C(=O)Nc2ccccc2F)cc(C)c1C [Compound 797],30,90,70,20,0,–,0,90,60,0,0,0,–,–,–,–,–,–
Cc1cc(F)cc([C@H]2CN(C)C(=O)[C@@H]2C(=O)Nc2cccc(F)c2C#N)c1 [Compound 800],30,80,20,40,0,–,0,80,0,20,0,0,–,–,–,–,–,–
Cc1cc(F)cc([C@H]2CN(C)C(=O)[C@@H]2C(=O)Nc2cccc(F)c2C)c1 [Compound 802],–,–,–,–,–,–,0,80,20,30,0,0,60,80,70,40,30,30
CN1C[C@H](c2ccc(C(F)(F)F)c(Br)c2)[C@@H](C(=O)Nc2cccc(F)c2F)C1=O [Compound 804],–,–,–,–,–,–,40,20,0,50,0,0,50,70,50,60,0,20
CN1CC[C@H](c2cccc(OC(F)(F)F)c2)[C@@H](C(=O)Nc2ccccc2C(F)(F)F)C1=O [Compound 806],–,–,–,–,–,–,0,0,0,0,0,0,0,0,0,0,0,0
